Experimental data: patent publication US20070128217A1 (priority 2003, published 2007)

Columns and labels:
[1] = tested on: rabbit serum obtained by immunizing a rabbit with the SARS-CoV strain Frankfurt 1; format: binding; design: Binding of a rabbit serum to linear peptides / Binding of a rabbit serum to looped peptides / Rabbit serum linear peptides / Rabbit serum looped peptides / Binding of a rabbit serum to linear peptides of protein N of SARS-CoV Urbani (Rabbit serum linear peptides) / Binding of a rabbit serum to looped/cyclic peptides of protein N of SARS-CoV Urbani (Rabbit serum looped peptides): unit not given here
[2] = tested on: control sera (pooled serum of ten healthy LUMC hospital workers; commercial negative donor pooled serum from the Dutch bloodbank); format: binding, human; design: Binding of Control serum LUMC to linear peptides / Binding of Control serum Blood-bank to linear peptides / Binding of Control serum LUMC to looped peptides / Binding of Control Serum Blood-Bank to Looped peptides / Binding of Control serum LUMC to linear peptides of the protein M of SARS-CoV Urbani / Binding of Control serum Blood-bank to linear peptides of the protein M of SARS-CoV Urbani / Binding of Control serum LUMC to looped peptides of the protein M of SARS-CoV Urbani / Binding of Control Serum Blood-Bank to Looped peptides of the protein M of SARS-CoV Urbani: unit not given here
[3] = tested on: antibodies in sera from SARS patients (sera 1a, 1b, 2, 6, 37, 62, London, SARS-yellow, SARS-green); format: binding, human; design: Binding of serum 6 to linear peptides of protein X1 of SARS-CoV Urbani / Binding of serum 37 to linear peptides of protein X1 of SARS-CoV Urbani / Binding of serum 6 to looped/cyclic peptide (PEPSCAN-ELISA) / Binding of serum 37 to looped/cyclic peptide (PEPSCAN-ELISA) / Binding of serum 37 to looped/cyclic peptides of protein X1 of SARS-CoV Urbani / Binding of serum 6 to linear peptides of protein X2 / Binding of serum 37 to linear peptides of protein X2 / Binding of serum 37 to looped/cyclic peptides of protein X2 of SARS-CoV Urbani / Binding of serum 6 to linear peptides of protein M of SARS-CoV Urbani / Binding of serum 37 to linear peptides of protein M of SARS-CoV Urbani / Binding of serum 6 to looped/cyclic peptides of protein M of SARS-CoV Urbani / Binding of serum 37 to looped/cyclic peptides of protein M of SARS-CoV Urbani / Binding of serum 6 to linear peptides of protein X3 of SARS-CoV Urbani / Binding of serum 37 to linear peptides of protein X3 of SARS-CoV Urbani / Binding of serum 37 to looped/cyclic peptides of protein X3 of SARS-CoV Urbani / Binding of serum 6 to linear peptides of protein X4 of SARS-CoV Urbani / Binding of serum 37 to linear peptides of protein X4 of SARS-CoV Urbani / Binding of serum 37 to looped/cyclic peptides of protein X4 of SARS-CoV Urbani / Binding of serum 6 to linear peptides of protein X5 of SARS-CoV Urbani / Binding of serum 37 to linear peptides of protein X5 of SARS-CoV Urbani / Binding of serum 37 to looped/cyclic peptides of protein X5 of SARS-CoV Urbani / Binding of serum 6 to linear peptides of protein N of SARS-CoV Urbani / Binding of serum 37 to linear peptides of protein N of SARS-CoV Urbani / Binding of serum 6 to linear peptide (PEPSCAN-ELISA) / Binding of serum 1a to looped/cyclic peptides of protein N of SARS-CoV Urbani / Binding of serum 1b to looped/cyclic peptides of protein N of SARS-CoV Urbani / Binding of serum 2 to looped/cyclic peptides of protein N of SARS-CoV Urbani / Binding of serum 6 to looped/cyclic peptides of protein N of SARS-CoV Urbani / Binding of serum 37 to looped/cyclic peptides of protein N of SARS-CoV Urbani / Binding of serum 62 to looped/cyclic peptides of protein N of SARS-CoV Urbani / Binding of serum London to looped/cyclic peptides of protein N of SARS-CoV Urbani / Binding of serum SARS-green to looped/cyclic peptides of protein N of SARS-CoV Urbani: unit not given here
[4] = tested on: recombinant human anti-SARS-CoV antibody 03-018; format: binding; design: Binding of antibody 03-018 to linear peptides of the N protein of SARS-CoV Urbani / Binding of antibody 03-018 to looped/cyclic peptides of the N protein of SARS-CoV Urbani: unit not given here

Row | Sequence | Binding of a rabbit serum to linear peptides of protein N of SARS-CoV Urbani (Rabbit serum linear peptides) [1] | Binding of a rabbit serum to looped/cyclic peptides of protein N of SARS-CoV Urbani (Rabbit serum looped peptides) [1] | Binding of Control Serum Blood-Bank to Looped peptides [2] | Binding of Control serum Blood-bank to linear peptides [2] | Binding of Control serum LUMC to linear peptides [2] | Binding of Control serum LUMC to looped peptides [2] | Binding of serum 1a to linear peptides of protein N of SARS-CoV Urbani [3] | Binding of serum 1a to looped/cyclic peptides of protein N of SARS-CoV Urbani [3] | Binding of serum 1b to linear peptides of protein N of SARS-CoV Urbani [3] | Binding of serum 1b to looped/cyclic peptides of protein N of SARS-CoV Urbani [3] | Binding of serum 2 to linear peptides of protein N of SARS-CoV Urbani [3] | Binding of serum 2 to looped/cyclic peptides of protein N of SARS-CoV Urbani [3] | Binding of serum 6 to linear peptides of protein N of SARS-CoV Urbani [3] | Binding of serum 6 to looped/cyclic peptides of protein N of SARS-CoV Urbani [3] | Binding of serum 37 to linear peptides of protein N of SARS-CoV Urbani [3] | Binding of serum 37 to looped/cyclic peptides of protein N of SARS-CoV Urbani [3] | Binding of serum 62 to linear peptides of protein N of SARS-CoV Urbani [3] | Binding of serum 62 to looped/cyclic peptides of protein N of SARS-CoV Urbani [3] | Binding of serum London to linear peptides of protein N of SARS-CoV Urbani [3] | Binding of serum London to looped/cyclic peptides of protein N of SARS-CoV Urbani [3] | other results
1 | RQGTDYKHWPQIAQF | 0.2 | 0.4 | 0.7 | 0.7 | 0.7 | 0.8 | 0.3 | 0.5 | 0.2 | 0.4 | 0.2 | 0.5 | 0.2 | 0.3 | 0.7 | 0.8 | 0.8 | 0.9 | 0.7 | 0.5 | Binding of serum SARS-green to linear peptides of protein N of SARS-CoV Urbani [3]: 0.3; Binding of serum SARS-green to looped/cyclic peptides of protein N of SARS-CoV Urbani [3]: 0.4; Binding of serum SARS-yellow to linear peptides of protein N of SARS-CoV Urbani [3]: 0.6; Binding of serum SARS-yellow to looped/cyclic peptides of protein N of SARS-CoV Urbani [3]: 0.8; Binding of antibody 03-018 to linear peptides of the N protein of SARS-CoV Urbani [4]: 0.1; Binding of antibody 03-018 to looped/cyclic peptides of the N protein of SARS-CoV Urbani [4]: 0.2
2 | QRSAPRITFGGPTDS | 0.3 | 1.2 | 0.7 | 0.6 | 0.5 | 0.7 | 0.2 | 0.4 | 0.1 | 0.3 | 0.1 | 0.4 | 0.1 | 0.4 | 0.6 | 0.7 | 0.6 | 0.5 | 0.5 | 0.9 | Binding of serum SARS-green to linear peptides of protein N of SARS-CoV Urbani [3]: 0.2; Binding of serum SARS-green to looped/cyclic peptides of protein N of SARS-CoV Urbani [3]: 0.4; Binding of serum SARS-yellow to linear peptides of protein N of SARS-CoV Urbani [3]: 0.5; Binding of serum SARS-yellow to looped/cyclic peptides of protein N of SARS-CoV Urbani [3]: 0.6; Recognition of the peptide by antibody 03-018 [4]: recognized
3 | PKDHIGTRNPNNNAA | 0.2 | 0.2 | 0.5 | 0.8 | 0.8 | 0.6 | 0.3 | 0.4 | 0.1 | 0.3 | 0.3 | 0.3 | 0.2 | 0.3 | 0.8 | 0.5 | 0.9 | 0.3 | 0.5 | 0.3 | Binding of serum SARS-green to linear peptides of protein N of SARS-CoV Urbani [3]: 0.4; Binding of serum SARS-green to looped/cyclic peptides of protein N of SARS-CoV Urbani [3]: 0.2; Binding of serum SARS-yellow to linear peptides of protein N of SARS-CoV Urbani [3]: 0.8; Binding of serum SARS-yellow to looped/cyclic peptides of protein N of SARS-CoV Urbani [3]: 0.2; Binding of antibody 03-018 to linear peptides of the N protein of SARS-CoV Urbani [4]: 0.1; Binding of antibody 03-018 to looped/cyclic peptides of the N protein of SARS-CoV Urbani [4]: 0.2
4 | ATRRVRGGDGKMKEL | 0.3 | 0.3 | 0.5 | 0.7 | 0.7 | 0.5 | 0.3 | 0.2 | 0.1 | 0.1 | 0.3 | 0.2 | 0.3 | 0.1 | 0.8 | 0.4 | 0.7 | 0.3 | 0.5 | 0.3 | Binding of serum SARS-green to linear peptides of protein N of SARS-CoV Urbani [3]: 0.3; Binding of serum SARS-green to looped/cyclic peptides of protein N of SARS-CoV Urbani [3]: 0.1; Binding of serum SARS-yellow to linear peptides of protein N of SARS-CoV Urbani [3]: 0.6; Binding of serum SARS-yellow to looped/cyclic peptides of protein N of SARS-CoV Urbani [3]: 0.4; Binding of antibody 03-018 to linear peptides of the N protein of SARS-CoV Urbani [4]: 0.1; Binding of antibody 03-018 to looped/cyclic peptides of the N protein of SARS-CoV Urbani [4]: 0.2
